Assay results: patent US10294253B2, “Siloxane-containing phospholipids, compositions and uses thereof” (priority 2016, dated 2019)
“And” between values parts separate entries of the source, which are not always exact repeats. Equal values may be shown once. Read-outs that look alike come from different tables or passages of the source. Marks after values point to notes of the source that are not given here.

Tests used:
[1] = literature value; cited from earlier work
[2] = Langmuir isotherms of phospholipid monolayers; type: physicochemical; conditions: 21.5° C
Text: The interfacial phase behaviour of lipids and phospholipids is an important area of study. Data from Langmuir isotherms can give insight into packing behaviour and collapse mechanisms of phospholipid monolayers. FIG. 1 presents the Langmuir isotherms for 1,2-SiPC, 1,3-SiPC, 1,2-dipalmitoyl-sn-3-phosphocholine (DPPC), and 1-palmitoyl-2-oleoyl-sn-3-phosphocholine (POPC). DPPC and POPC are biologically relevant lipids that are commonly used as model systems in the study of membrane topology. These two lipids differ in the degree of unsaturation with POPC containing a single unit of unsaturation in the oleic acid FA chain. […] The surface area at the collapse of 1,2-SiPC was approximately 70 Å^2 and that for 1,3-SiPC was 87 Å^2. Both of these values are larger than those observed for DPPC and POPC.
While not wishing to be bound by theory, the larger size of the siloxane tails strongly affects the mean molecular area of the lipid as well as the lipid area at monolayer collapse. Furthermore, the rotational freedom of the siloxane unit leads to behaviour similar to that for unsaturated phospholipids such as POPC.

[3] = Small-angle X-ray scattering (SAXS) of vesicle suspensions, 3-Gaussian electron density model; type: physicochemical; conditions: for derived lipid volume / derived lipid volume relative to the volume from the atomic covalent radii: 3-Gaussian model; for ρC (fit parameter, hydrocarbon chain electron density relative to water) / zH (fit parameter, position of headgroup Gaussian) / σC (fit parameter, standard deviation of hydrocarbon Gaussian) / σH (fit parameter, standard deviation of headgroup Gaussian): 20° C, POPC ULVs with 5 mol % POPG; for ρC (fit parameter, hydrocarbon chain electron density relative to water): extruded 100 nm, SiPC freeze-thaw; for ρC (fit parameter, hydrocarbon chain electron density relative to water) / SAXS curve: bilayer-bilayer structure factor (Bragg peak), lamellarity: not extruded; for zH (fit parameter, position of headgroup Gaussian) / σC (fit parameter, standard deviation of hydrocarbon Gaussian) / σH (fit parameter, standard deviation of headgroup Gaussian): extruded, SiPC not extruded; for SAXS curve: bilayer-bilayer structure factor (Bragg peak), lamellarity: freeze-thaw liposomes
Description: (§1) SiPCs were prepared as described above in Example 1. Aqueous dispersions of SiPCs were prepared by five freeze-thaw cycles to give opaque suspensions of vesicles suitable for Small-angle X-ray scattering (SAXS) analysis. Dispersion particle size was determined by dynamic light scattering (DLS) with a Nano Zetasizer ZS90 (Malvern Instruments, Worcestershire, U.K.).
(§2) 1-Palmitoyl-2-oleoyl-sn-3-glycercophosphocholine (POPC) and 1-palmitoyl-2-oleoyl-sn-3-glcyercophosphoglycerol (POPG) were purchased from Avanti Polar Lipids (Alabaster, Ala.) and used as received. POPC and 5 mol % POPG were co-dissolved in a chloroform:methanol (3:1) mixture. POPC was doped with 5 mol % POPG, to minimize pauci-lamellar vesicle contamination. Solvent was removed under a gentle stream of dry nitrogen gas then was put under vacuum for 8 hours. POPC:POPG film was hydrated with ultrapure water to a concentration of ˜30 mg/mL. ULVs were prepared using a manual miniextruder (Avanti Polar Lipids, Alabaster, Ala.), assembled with a 100 nm pore-diameter polycarbonate filter. The lipid suspension was passed through the filter 31 times. SAXS data were collected at the P12 BioSAXS beamline at the storage ring PETRA III (synchrotron DESY, Hamburg)^26 at a temperature of 20° C. SAXS data were visualized, averaged and the background was subtracted using ATSAS^27 and modelled using the method of Pabst et al.^28 The data was fit utilizing a standard non-linear least-squares fitting (NLSF) scheme within Origin (OriginLab, USA). Vesicle size was determined by dynamic light scattering (DLS) with a Nano Zetasizer ZS90 (Malvern Instruments, Worcestershire, U.K.)
SAXS is sensitive to the presence of multilamellar vesicles (MLVs) and is used to evaluate the presence of MLVs. Shown in FIG. 2 are SAXS data for an about 40 mM POPC vesicle suspension in water as 100 nm ULV (black) and MLVs (gray). For MLVs, density correlations between the stacked bilayers give rise to a bilayer-bilayer structure factor also known as Bragg Peaks at a length scale corresponding to integer multiples of the lamellar repeat distance (e.g., the first Bragg order at q˜0.1 Å^−1, corresponding to a lamellar repeat distance of ˜63 Å).
The scattering regime where bilayer structure (as opposed to vesicle sphericity) dominates the form factor is of most interest as information about vesicle size is obtained from the DLS. The scattered intensity of a dilute vesicle suspension is given by:
The functional model chosen to describe the electron density of the siloxane phospholipids is the three Gaussian model as outlined by Pabst et al. (2000).^28 In this model, the electron distribution is the summation of the headgroups, described by a single Gaussian (in total 2, one for each leaflet of the bilayer) and a Gaussian representing the hydrocarbon chains, Eqn 2.
The position of the Gaussian peak is at zi where i=H or C and zC=0, with a standard deviation of σi. For simplicity, ρH−ρw and ρC−ρw are referred to herein as ρH and ρC respectively. The form factor of this electron density model can then be calculated analytically by applying Eqn 3: F(q)=∫ρ(z)exp(iqz)dz (3) which yields:
Only the cosine terms remain due to the centrosymmetric nature of a single component lipid bilayer. A benefit of this method is that structural parameters can be derived from simple geometric relationships, without the need of volumetric data. Typically area per lipid AL is one of the more desirable structural parameters to be extracted from the data. To begin, the transverse structure of the bilayer is derived (along the bilayer normal), such as the hydrocarbon length (dC) and the headgroup thickness (dH). Simply, dH can be estimated from the full width at half maximum (FWHM) of the Gaussian describing the headgroups. Using dH, dC can be determined as: […]

[4] = Dynamic light scattering (DLS) of liposome suspensions; type: physicochemical; conditions: for Dia. (vesicle diameter, most abundant population) / Rel. pop. (most abundant population) / Dia. (vesicle diameter, second population) / Rel. pop. (second population): aqueous suspension; for Dia. (vesicle diameter, most abundant population): POPC with 5 mol % POPG extruded through 100 nm membrane, SiPC not extruded; for Rel. pop. (most abundant population): first population; for polydispersity: most abundant population, liposomes not extruded
Description: POPC ULVs contain 5 mol % of 1-palmitoyl-2-oleoyl-sn-3-glcyercophosphoglycerol (POPG) and were extruded through a 100 nm polycarbonate membrane. SiPC suspensions were not extruded.
as §1, §2
The diameter standard deviation (a) for the vesicles (most abundant population) was below 20% of the diameter for liposomes of 1,2-SiPC and 1,3-SiPC, thus implying very low polydispersities of 0.16 and 0.19 respectively.

[5] = fixed using experimentally determined volume, cited from earlier work; for ρH (fit parameter, headgroup electron density relative to water): 20° C
[6] = literature SDP model; cited from earlier work
[7] = geometrically derived from SAXS fit

surface area at the collapse of the monolayer [2]	derived lipid volume [3]	derived lipid volume relative to the volume from the atomic covalent radii [3]	ρC (fit parameter, hydrocarbon chain electron density relative to water) [3]	zH (fit parameter, position of headgroup Gaussian) [3]	σC (fit parameter, standard deviation of hydrocarbon Gaussian) [3]	σH (fit parameter, standard deviation of headgroup Gaussian) [3]	AL (area per lipid) [3, 7]	VC (hydrocarbon volume) [3, 7]	dB (bilayer thickness) [3, 7]	dC (hydrocarbon length) [3, 7]	dH (headgroup thickness) [3, 7]	dHH (headgroup-headgroup distance) [3, 7]	Dia. (vesicle diameter, most abundant population) [4]	Rel. pop. (most abundant population) [4]	Dia. (vesicle diameter, second population) [4]	Rel. pop. (second population) [4]	Structure (SMILES)	SAXS curve: bilayer-bilayer structure factor (Bragg peak), lamellarity [3]	ρH (fit parameter, headgroup electron density relative to water) [5]	VH (PC headgroup volume) [5]	other results
																	CC(C)CCCC(C)CCCC(C)CCCC(C)CC(=O)OC[C@H](COP(=O)([O-])OCC[N+](C)(C)C)OC(=O)CC(C)CCCC(C)CCCC(C)CCCC(C)C (stereo partly drawn) [diPhyPC, 1,2-diphytanoyl-sn-glycero-3-phosphatidylcholine]				AL (area per lipid) [1]: 78 Å^2
87 Å^2	1577 Å^3	7 factor	−0.101 ± 0.003 e/Å^3	17.6 ± 0.1 Å	13.3 ± 0.3 Å	4.3 ± 0.2 Å	72 ± 4 Å^2	1246 ± 81 Å^3	43.9 ± 0.4 Å	13.2 ± 0.2 Å	8.6 ± 0.5 Å	35.3 ± 0.1 Å	123.4 nm	89%	684.9 nm	11%	C[N+](C)(C)CCOP(=O)([O-])OC(COC(=O)CCCCCCCCC[Si](C)(C)O[Si](C)(C)O[Si](C)(C)C)COC(=O)CCCCCCCCC[Si](C)(C)O[Si](C)(C)O[Si](C)(C)C [1,3-SiPC]	without the presence of a bilayer-bilayer structure factor (Bragg Peak)	0.1609^a e/Å^3	331^a Å^3	polydispersity [4]: 0.19
approximately 70 Å^2	1574 Å^3	7 factor	−0.106 ± 0.002 e/Å^3	18.2 ± 0.05 Å	14.1 ± 0.2 Å	4.6 ± 0.1 Å	69 ± 2 Å^2	1243 ± 42 Å^3	45.5 ± 0.3 Å	9.9 ± 0.5 Å	9.1 ± 0.3 Å	36.3 ± 0.1 Å	193.7 nm	79%	949.8 nm	21%	C[N+](C)(C)CCOP(=O)([O-])OCC(COC(=O)CCCCCCCCC[Si](C)(C)O[Si](C)(C)O[Si](C)(C)C)OC(=O)CCCCCCCCC[Si](C)(C)O[Si](C)(C)O[Si](C)(C)C (racemic) [1,2-SiPC]	without the presence of a bilayer-bilayer structure factor (Bragg Peak)	0.1609^a e/Å^3	331^a Å^3	polydispersity [4]: 0.16
			−0.152 ± 0.002 e/Å^3	18.16 ± 0.08 Å	6.9 ± 0.2 Å	3.77 ± 0.06 Å	58.9 ± 2^ Å^2	961 ± 27 Å^3	43.7 Å and 43.7 ± 0.2 Å	14.4 Å and 14.4 ± 0.1 Å	7.5 ± 0.2 Å	36.3 Å and 36.3 ± 0.1 Å	98.1 nm	100%			CCCCCCCC/C=C\CCCCCCCC(=O)O[C@H](COC(=O)CCCCCCCCCCCCCCC)COP(=O)([O-])OCC[N+](C)(C)C [POPC, 1-palmitoyl-2-oleoyl-sn-3-phosphocholine, reference compound]		0.1609^a e/Å^3	331^a Å^3	lamellar repeat distance ([3]; about 40 mM POPC MLVs in water, first Bragg order at q~0.1 Å^-1): ~63 Å; derived AL (area per lipid) [3, 7]: 58.9±2 Å; AL, SDP model derived [6]: 62.7±1 Å; dB (bilayer thickness), SDP analysis [6]: 39.8 Å; dC (hydrocarbon length), SDP analysis [6]: 14.6 Å; dHH (headgroup-headgroup distance), SDP analysis [6]: 37.4 Å
